Data: PubChem BioAssay AID330 (DTP/NCI, 2004)
Where “and” joins values, the source holds several entries; their conditions need not be identical. Equal values may be shown once. Inconclusive results and toxic doses are left out. How the source made its calls: active means survival T/C of 150% or more; inactive means T/C below 125% in these data.

System: P388 leukemia ip, CD2F1 mice, survival T/C
Experiment: NCI In Vivo Anticancer Drug Screen. Data for tumor model P388 Leukemia (intraperitoneal) in CD2F1 (CDF1) mice
Details: endpoint: median survival time, higher = longer survival
Outline: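 Mice carrying the transplanted tumor received test compound or vehicle. Survival was recorded in each group, and the value is the treated-group measurement divided by that of the vehicle-treated control group.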

[1] = dose: 50.0 mg/kg/injection, schedule: Q01DX009 (ip), vehicle: suspension in saline
[2] = dose: 100.0 mg/kg/injection, schedule: Q01DX009 (ip), vehicle: suspension in saline
[3] = dose: 60.0 mg/kg/injection, schedule: Q01DX005 (ip), vehicle: saline with Tween-80
[4] = dose: 120.0 mg/kg/injection, schedule: Q01DX005 (ip), vehicle: saline with Tween-80
[5] = dose: 240.0 mg/kg/injection, schedule: Q01DX005 (ip), vehicle: saline with Tween-80
[6] = dose: 50.0 mg/kg/injection, schedule: Q01DX009 (ip), vehicle: saline with Tween-80
[7] = dose: 100.0 mg/kg/injection, schedule: Q01DX009 (ip), vehicle: saline with Tween-80
[8] = dose: 200.0 mg/kg/injection, schedule: Q01DX009 (ip), vehicle: saline with Tween-80
[9] = dose: 25.0 mg/kg/injection, schedule: Q01DX009 (ip), vehicle: suspension in saline
[10] = dose: 100.0 mg/kg/injection, schedule: Q04DX002 (ip), vehicle: Klucel (hydroxypropylcellulose) (HPC)
[11] = dose: 200.0 mg/kg/injection, schedule: Q04DX002 (ip), vehicle: Klucel (hydroxypropylcellulose) (HPC)
[12] = dose: 400.0 mg/kg/injection, schedule: Q04DX002 (ip), vehicle: Klucel (hydroxypropylcellulose) (HPC)
[13] = dose: 6.25 mg/kg/injection, schedule: Q01DX009 (ip), vehicle: saline with Tween-80
[14] = dose: 25.0 mg/kg/injection, schedule: Q01DX009 (ip), vehicle: saline with Tween-80
[15] = dose: 60.0 mg/kg/injection, schedule: Q01DX005 (ip), vehicle: saline
[16] = dose: 120.0 mg/kg/injection, schedule: Q01DX005 (ip), vehicle: saline
[17] = dose: 240.0 mg/kg/injection, schedule: Q01DX005 (ip), vehicle: saline

Measured: T/C

CNC(=O)Sc1ccc(Cl)cc1
inactive: [1] 102 % of control | [2] 105 % of control | dose: 200.0 mg/kg/injection, schedule: Q01DX009 (ip), vehicle: suspension in saline 113 % of control

NC(=S)c1ccc(N=Cc2ccccc2)cc1
inactive: dose: 12.5 mg/kg/injection, schedule: Q01DX001 (ip), vehicle: Klucel (hydroxypropylcellulose) (HPC) 101 % of control | dose: 25.0 mg/kg/injection, schedule: Q01DX001 (ip), vehicle: Klucel (hydroxypropylcellulose) (HPC) 101 % of control | dose: 50.0 mg/kg/injection, schedule: Q01DX001 (ip), vehicle: Klucel (hydroxypropylcellulose) (HPC) 95 % of control

CN(C)CCCC[N+](C)(C)Cc1ccc(C[N+](C)(C)CCCC[N+](C)(C)Cc2ccc(CCl)cc2)cc1
inactive: dose: 3.12 mg/kg/injection, schedule: Q04DX003 (ip), vehicle: saline 100 % of control | dose: 6.25 mg/kg/injection, schedule: Q04DX003 (ip), vehicle: saline 94 % of control | dose: 12.5 mg/kg/injection, schedule: Q04DX003 (ip), vehicle: saline 100 % of control and 111 % of control and 96 % of control | dose: 25.0 mg/kg/injection, schedule: Q04DX003 (ip), vehicle: saline 100 % of control and 113 % of control

O=C(CNC(=O)c1ccccc1)N/N=C/c1ccco1
inactive: [3] 95 % of control | [4] 101 % of control | [5] 100 % of control

Cc1nc2c(N)nn(C)c2nc1C
inactive: [6] 105 % of control | [7] 110 % of control | [8] 110 % of control

CC(=O)Nc1c(Cl)c(Cl)c2c(c1Cl)Cc1cc(Cl)ccc1-2
inactive: dose: 12.5 mg/kg/injection, schedule: Q01DX009 (ip), vehicle: saline 103 % of control | dose: 25.0 mg/kg/injection, schedule: Q01DX009 (ip), vehicle: saline 104 % of control | [9] 91 % of control | dose: 50.0 mg/kg/injection, schedule: Q01DX009 (ip), vehicle: saline 107 % of control | [1] 87 % of control | [2] 91 % of control

CCN(CCN1C(=O)C2CCCCC2C1=O)c1ccc(N=O)c(C)c1 (centres undefined)
inactive: dose: 100.0 mg/kg/injection, schedule: Q04DX003 (ip), vehicle: saline with Tween-80 106 % of control | dose: 200.0 mg/kg/injection, schedule: Q04DX003 (ip), vehicle: saline with Tween-80 109 % of control | dose: 400.0 mg/kg/injection, schedule: Q04DX003 (ip), vehicle: saline with Tween-80 112 % of control

CCOC(CCC1(C)C(=O)CCC1=O)(OCC)OCC
inactive: [3] 106 % of control | [4] 106 % of control | [5] 99 % of control

CCC(=O)c1c(C)oc2ccc(O)cc12
inactive: dose: 25.0 mg/kg/injection, schedule: Q04DX002 (ip), vehicle: Klucel (hydroxypropylcellulose) (HPC) 94 % of control | dose: 50.0 mg/kg/injection, schedule: Q04DX002 (ip), vehicle: Klucel (hydroxypropylcellulose) (HPC) 89 % of control | [10] 91 % of control | [11] 90 % of control | [12] 90 % of control

O=c1c(F)cn(C(c2ccccc2)c2ccccc2)c(=O)n1C(c1ccccc1)c1ccccc1
inactive: dose: 12.5 mg/kg/injection, schedule: Q01DX009 (ip), vehicle: suspension in saline 101 % of control | dose: 18.75 mg/kg/injection, schedule: Q01DX009 (ip), vehicle: suspension in saline 115 % of control | [9] 106 % of control | dose: 37.5 mg/kg/injection, schedule: Q01DX009 (ip), vehicle: suspension in saline 97 % of control | [1] 100 % of control | dose: 75.0 mg/kg/injection, schedule: Q01DX009 (ip), vehicle: suspension in saline 101 % of control and 115 % of control | dose: 150.0 mg/kg/injection, schedule: Q01DX009 (ip), vehicle: suspension in saline 97 % of control

Cc1cc(Cl)n[nH]1
inactive: [13] 108 % of control | dose: 12.0 mg/kg/injection, schedule: Q01DX009 (ip), vehicle: saline with Tween-80 108 % of control | [14] 106 % of control

CN(C)CC(CN(C)C)C(=O)/C=C/c1ccc(OCc2ccccc2)cc1
inactive: dose: 6.25 mg/kg/injection, schedule: Q01DX005 (ip), vehicle: saline 104 % of control | dose: 12.5 mg/kg/injection, schedule: Q01DX005 (ip), vehicle: saline 97 % of control

CCC(=O)Nc1ccc(C(=O)C(C)Br)cc1 (centres undefined)
inactive: [13] 108 % of control | dose: 12.5 mg/kg/injection, schedule: Q01DX009 (ip), vehicle: saline with Tween-80 115 % of control | [14] 117 % of control

COCn1ncnc1C(=O)c1ccccc1
inactive: [6] 97 % of control | [7] 98 % of control | [8] 92 % of control

CCN(CC)Cc1c(C)[nH]c2ccc3c(c2c1=O)CCCC3
inactive: dose: 60.0 mg/kg/injection, schedule: Q01DX005 (ip), vehicle: Klucel (hydroxypropylcellulose) (HPC) 91 % of control | dose: 120.0 mg/kg/injection, schedule: Q01DX005 (ip), vehicle: Klucel (hydroxypropylcellulose) (HPC) 93 % of control

CN(C)Cc1cnccc1I
inactive: dose: 50.0 mg/kg/injection, schedule: Q01DX005 (ip), vehicle: suspension in saline 101 % of control | dose: 100.0 mg/kg/injection, schedule: Q01DX005 (ip), vehicle: suspension in saline 104 % of control | dose: 200.0 mg/kg/injection, schedule: Q01DX005 (ip), vehicle: suspension in saline 108 % of control

COC1OC(CO)C(N(C)C(C)=O)C1O (centres undefined)
inactive: [15] 120 % of control | [16] 115 % of control | [17] 106 % of control

CCN(CC)Cc1c(C)[nH]c2ccc3c(c2c1=O)Oc1ccccc1O3
inactive: [10] 100 % of control | [11] 100 % of control | [12] 100 % of control

CC1CCCCC12C(C#N)(C#N)C2(C#N)C#N (centres undefined)
inactive: dose: 12.5 mg/kg/injection, schedule: Q04DX003 (ip), vehicle: Klucel (hydroxypropylcellulose) (HPC) 101 % of control | dose: 25.0 mg/kg/injection, schedule: Q04DX003 (ip), vehicle: Klucel (hydroxypropylcellulose) (HPC) 102 % of control

N#Cc1ccc(NN=NCCF)cc1
inactive: dose: 6.25 mg/kg/injection, schedule: Q01DX005 (ip), vehicle: distilled water + Tween-80 100 % of control | dose: 6.25 mg/kg/injection, schedule: Q01DX005 (ip), vehicle: saline with Tween-80 117 % of control | dose: 12.5 mg/kg/injection, schedule: Q01DX005 (ip), vehicle: saline with Tween-80 121 % of control

CCSC(=O)OCC(F)([N+](=O)[O-])[N+](=O)[O-]
inactive: dose: 100.0 mg/kg/injection, schedule: Q04DX003 (ip), vehicle: saline 108 % of control | dose: 200.0 mg/kg/injection, schedule: Q04DX003 (ip), vehicle: saline 100 % of control | dose: 400.0 mg/kg/injection, schedule: Q04DX003 (ip), vehicle: saline 104 % of control

Oc1ccccc1O.[O-]c1ccccc1[O-].[O-]c1ccccc1[O-].[O]=[V+2]
inactive: dose: 5.0 mg/kg/injection, schedule: Q01DX009 (ip), vehicle: saline 100 % of control | dose: 5.0 mg/kg/injection, schedule: Q04DX003 (ip), vehicle: saline 95 % of control | dose: 10.0 mg/kg/injection, schedule: Q01DX009 (ip), vehicle: saline 90 % of control | dose: 10.0 mg/kg/injection, schedule: Q04DX003 (ip), vehicle: saline 118 % of control | dose: 20.0 mg/kg/injection, schedule: Q04DX003 (ip), vehicle: saline 100 % of control

CN=C(N)N/N=C(C)/C(C)=C/c1ccccc1
inactive: dose: 25.0 mg/kg/injection, schedule: Q04DX002 (ip), vehicle: saline with Tween-80 104 % of control

N#CC(Cc1ccccc1)c1ccc(Cl)cc1 (centres undefined)
inactive: dose: 50.0 mg/kg/injection, schedule: Q01DX009 (ip), vehicle: Klucel (hydroxypropylcellulose) (HPC) 106 % of control | dose: 100.0 mg/kg/injection, schedule: Q01DX009 (ip), vehicle: Klucel (hydroxypropylcellulose) (HPC) 110 % of control | dose: 200.0 mg/kg/injection, schedule: Q01DX009 (ip), vehicle: Klucel (hydroxypropylcellulose) (HPC) 104 % of control | dose: 400.0 mg/kg/injection, schedule: Q01DX009 (ip), vehicle: Klucel (hydroxypropylcellulose) (HPC) 109 % of control

CC(=O)/C=C(\C)NCCN/C(C)=C/C(C)=O
inactive: [15] 101 % of control | [16] 98 % of control | [17] 98 % of control

CCO/C=C1/N=C(c2cccc3ccccc23)OC1=O
inactive: [3] 99 % of control | [4] 99 % of control | [5] 99 % of control

COC(=O)CCSCCO
inactive: [3] 119 % of control | [4] 109 % of control | [5] 101 % of control
